Assay results reported in US12492181B2, “Gem-disubstituted piperidine melanocortin subtype-2 receptor (MC2R) antagonists and uses thereof” (Crinetics Pharmaceuticals, Inc., priority 2019, dated 2025).

The compounds below were run against T1, hMC2 receptor (crude hMC2R membranes from CRE-bla-CHO-K1 cells stably expressing hMC2 receptor and hMRAP accessory protein) (Homo sapiens, UniProt Q01718) (assay: hMC2 membrane binding assay ([125I]ACTH (1-39) Tyr23, SPA)). Conditions: displacement of 0.2 nM [125I]ACTH (1-39) Tyr23 from hMC2R membranes, 1.5 hours at room temperature; read-out: MC2R binding potency.
T1 construct: crude membrane fractions
Outline: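 Crude membranes from CRE-bla-CHO-K1 cells stably co-expressing hMC2R and hMRAP, premixed with WGA PVT SPA beads in pH 7.4 HEPES buffer (5 mM MgCl2, 1 mM CaCl2, 0.20% BSA, protease inhibitors). Compounds compete with [125I]ACTH(1-39) Tyr23, read by scintillation. Ki from non-linear regression.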

T1 sequence (Q01718 whole entry): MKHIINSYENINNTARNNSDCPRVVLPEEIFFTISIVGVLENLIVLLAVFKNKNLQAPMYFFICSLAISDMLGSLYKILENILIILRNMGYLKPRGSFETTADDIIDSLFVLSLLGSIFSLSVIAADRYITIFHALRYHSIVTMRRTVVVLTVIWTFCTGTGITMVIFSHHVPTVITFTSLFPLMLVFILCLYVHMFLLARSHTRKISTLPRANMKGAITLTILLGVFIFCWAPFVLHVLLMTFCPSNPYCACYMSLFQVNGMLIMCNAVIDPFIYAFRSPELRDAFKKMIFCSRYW
T1 sequence (Q8TCY5 whole entry partner): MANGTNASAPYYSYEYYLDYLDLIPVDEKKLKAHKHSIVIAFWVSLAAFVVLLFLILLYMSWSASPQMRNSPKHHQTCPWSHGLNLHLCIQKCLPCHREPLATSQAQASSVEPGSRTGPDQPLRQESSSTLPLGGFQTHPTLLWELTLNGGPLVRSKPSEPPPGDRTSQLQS

`CN(C)CCCNC(=O)C1(c2ccc(-c3cccn3C)nc2)CCN(c2ccc(C(F)(F)F)cc2C#N)CC1` [Compound 1-207, 1-[2-cyano-4-(trifluoromethyl)phenyl]-N-[3-(dimethylamino)propyl]-4-[6-(1-methyl-1H-pyrrol-2-yl)pyridin-3-yl]piperidine-4-carboxamide] and `CN1CC[C@@H](NC(=O)C2(c3ccc(-c4ccccc4CO)nc3)CCN(c3ccc(C(F)(F)F)cc3C#N)CC2)C1` [Compound 1-55, 1-[2-cyano-4-(trifluoromethyl)phenyl]-4-{6-[2-(hydroxymethyl)phenyl]pyridin-3-yl}-N-[(3R)-1-methylpyrrolidin-3-yl]piperidine-4-carboxamide] cannot be ordered by Ki: less than 10 nM for the first, less than 10 nM for the second.

`CN(C)[C@@H](CO)CNC(=O)C1(c2ccc(-c3cccn3C)nc2)CCN(c2ccc(C(F)(F)F)cc2C#N)CC1` [Compound 1-275, 1-[2-cyano-4-(trifluoromethyl)phenyl]-N-[(2R)-2-(dimethylamino)-3-hydroxypropyl]-4-[6-(1-methyl-1H-pyrrol-2-yl)pyridin-3-yl]piperidine-4-carboxamide] and `CCOc1ncccc1-c1cnc(C2(C(=O)N[C@H]3CCN(C)C3)CCN(c3ccc(C(F)(F)F)cc3C#N)CC2)cn1` [Compound 1-58, 1-[2-cyano-4-(trifluoromethyl)phenyl]-4-[5-(2-ethoxypyridin-3-yl)pyrazin-2-yl]-N-[(3S)-1-methylpyrrolidin-3-yl]piperidine-4-carboxamide] cannot be ordered by Ki: less than 10 nM for the first, less than 10 nM for the second.

First: COc1ccccc1-c1ncc(C2(C(=O)NCCCN(C)C)CCN(c3ccc(C(F)(F)F)cc3C#N)CC2)cc1F [Compound 1-199, 1-[2-cyano-4-(trifluoromethyl)phenyl]-N-[3-(dimethylamino)propyl]-4-[5-fluoro-6-(2-methoxyphenyl)pyridin-3-yl]piperidine-4-carboxamide]
Second: CCOc1ncccc1-c1ccc(C2(C(=O)NC[C@H](C)N)CCN(c3ccc(C(F)(F)F)cc3C#N)CC2)cc1 [Compound 1-6, N-[(2S)-2-aminopropyl]-1-[2-cyano-4-(trifluoromethyl)phenyl]-4-[4-(2-ethoxypyridin-3-yl)phenyl]piperidine-4-carboxamide]
The Ki of the first is lower: less than 10 nM for the first, 10 to 100 nM for the second. The first binds more tightly here.

First: CCOc1ccccc1-c1ccc(C2(NC(=O)CCN(C)C)CCN(c3ccc(C(F)(F)F)cc3C#N)CC2)cn1 [Compound 2-36, N-{1-[2-cyano-4-(trifluoromethyl)phenyl]-4-[6-(2-ethoxyphenyl)pyridin-3-yl]piperidin-4-yl}-3-(dimethylamino)propanamide]
Second: COc1ccccc1-c1ccc(C2(C(=O)N[C@H]3C[C@H]4CC[C@@H]3N4C)CCN(c3ccc(C(F)(F)F)cc3C#N)CC2)cn1 (racemic) [Compound 1-252, rac-1-[2-cyano-4-(trifluoromethyl)phenyl]-4-[6-(2-methoxyphenyl)pyridin-3-yl]-N-[(1S,2S,4R)-7-methyl-7-azabicyclo[2.2.1]heptan-2-yl]piperidine-4-carboxamide]
The Ki of the first is lower: less than 10 nM for the first, 10 to 100 nM for the second. The first binds more tightly here.

`CCOc1ncccc1-c1ccc(C2(NC(=O)CN(C)C)CCN(c3ccc(Cl)cc3C#N)CC2)cn1` [Compound 2-38, N-[1-(4-chloro-2-cyanophenyl)-4-{2′-ethoxy-[2,3′-bipyridin]-5-yl}piperidin-4-yl]-2-(dimethylamino)acetamide] and `CCOc1ccccc1-c1ncc(C2(C(=O)N[C@H]3CCN(C)C3)CCN(c3ccc(C(F)(F)F)cc3C#N)CC2)cc1F` [Compound 1-124, 1-[2-cyano-4-(trifluoromethyl)phenyl]-4-[6-(2-ethoxyphenyl)-5-fluoropyridin-3-yl]-N-[(3S)-1-methylpyrrolidin-3-yl]piperidine-4-carboxamide] cannot be ordered by Ki: less than 10 nM for the first, less than 10 nM for the second.

`CCOc1ncccc1-c1ccc(C2(C(=O)N[C@H]3CCN(C)C3)CCN(c3ccc(C(F)(F)F)cc3F)CC2)nn1` [Compound 1-193, 4-[6-(2-ethoxypyridin-3-yl)pyridazin-3-yl]-1-[2-fluoro-4-(trifluoromethyl)phenyl]-N-[(3S)-1-methylpyrrolidin-3-yl]piperidine-4-carboxamide] and `CCOc1ncccc1-c1ncc(C2(C(=O)N[C@H]3CCN(C)C3)CCN(c3ccc(C(F)(F)F)cc3Cl)CC2)cc1F` [Compound 1-203, 1-[2-chloro-4-(trifluoromethyl)phenyl]-4-{2′-ethoxy-3-fluoro-[2,3′-bipyridin]-5-yl}-N-[(3S)-1-methylpyrrolidin-3-yl]piperidine-4-carboxamide] cannot be ordered by Ki: less than 10 nM for the first, less than 10 nM for the second.

“1-{1-[2-cyano-4-(trifluoromethyl)phenyl]-4-[6-(1-methyl-1H-pyrrol-2-yl)pyridin-3-yl]piperidin-4-yl}-3-[(3R)-1-methylpyrrolidin-3-yl]urea [Compound 2-48]” and `COc1ccc(F)cc1-c1ncc(C2(C(=O)N[C@H]3CCN(C)C3)CCN(c3ccc(C(F)(F)F)cc3C#N)CC2)cc1F` [Compound 1-195, 1-[2-cyano-4-(trifluoromethyl)phenyl]-4-[5-fluoro-6-(5-fluoro-2-methoxyphenyl)pyridin-3-yl]-N-[(3S)-1-methylpyrrolidin-3-yl]piperidine-4-carboxamide] cannot be ordered by Ki: less than 10 nM for the first, less than 10 nM for the second.

`CCOc1ncccc1-c1ccc(C2(C(=O)N[C@H]3CCN(C)C3)CCN(c3ccc(C#N)cc3C(F)(F)F)CC2)cn1` [Compound 1-38, 1-[4-cyano-2-(trifluoromethyl)phenyl]-4-{2′-ethoxy-[2,3′-bipyridin]-5-yl}-N-[(3S)-1-methylpyrrolidin-3-yl]piperidine-4-carboxamide] and `COc1ccccc1-c1ccc(C2(NC(=O)N[C@@H]3CCN(C)C3)CCN(c3ccc(C(F)(F)F)cc3C#N)CC2)cn1` [Compound 2-56, 1-{1-[2-cyano-4-(trifluoromethyl)phenyl]-4-[6-(2-methoxyphenyl)pyridin-3-yl]piperidin-4-yl}-3-[(3R)-1-methylpyrrolidin-3-yl]urea] cannot be ordered by Ki: less than 10 nM for the first, less than 10 nM for the second.

`C[C@@H](CN(C)C)NC(=O)C1(c2ccc(-c3cccn3C)nc2)CCN(c2ccc(C(F)(F)F)cc2F)CC1` [Compound 1-297, N-[(2S)-1-(dimethylamino)propan-2-yl]-1-[2-fluoro-4-(trifluoromethyl)phenyl]-4-[6-(1-methyl-1H-pyrrol-2-yl)pyridin-3-yl]piperidine-4-carboxamide] and `CCOc1ncccc1-c1ccc(C2(NC(=O)O[C@H]3CCN(C)C3)CCN(c3ccc(C(F)(F)F)cc3C#N)CC2)cn1` [Compound 2-18, (3S)-1-methylpyrrolidin-3-yl N-{1-[2-cyano-4-(trifluoromethyl)phenyl]-4-{2′-ethoxy-[2,3′-bipyridin]-5-yl}piperidin-4-yl}carbamate] cannot be ordered by Ki: less than 10 nM for the first, less than 10 nM for the second.

`CN1CC[C@@H](NC(=O)C2(c3ccc(-c4ccccc4OC4CC4)nc3)CCN(c3ccc(C(F)(F)F)cc3C#N)CC2)C1` [Compound 1-89, 1-[2-cyano-4-(trifluoromethyl)phenyl]-4-[6-(2-cyclopropoxyphenyl)pyridin-3-yl]-N-[(3R)-1-methylpyrrolidin-3-yl]piperidine-4-carboxamide] and `CCOc1ncccc1-c1ccc(C2(C(=O)NCCNC)CCN(c3ccc(C(F)(F)F)cc3C#N)CC2)cn1` [Compound 1-14, 1-[2-cyano-4-(trifluoromethyl)phenyl]-4-{2′-ethoxy-[2,3′-bipyridin]-5-yl}-N-[2-(methylamino)ethyl]piperidine-4-carboxamide] cannot be ordered by Ki: less than 10 nM for the first, less than 10 nM for the second.

`CN1CC[C@H](NC(=O)C2(c3ccc(-c4cccnc4C4CC4)nc3)CCN(c3ccc(C(F)(F)F)cc3C#N)CC2)C1` [Compound 1-180, 1-[2-cyano-4-(trifluoromethyl)phenyl]-4-{2′-cyclopropyl-[2,3′-bipyridin]-5-yl}-N-[(3S)-1-methylpyrrolidin-3-yl]piperidine-4-carboxamide] and `CCOc1ncccc1-c1ncc(C2(C(=O)NCCN(C)C)CCN(c3ccc(C(F)(F)F)cc3Cl)CC2)cc1F` [Compound 1-288, 1-[2-chloro-4-(trifluoromethyl)phenyl]-N-[2-(dimethylamino)ethyl]-4-{2′-ethoxy-3-fluoro-[2,3′-bipyridin]-5-yl}piperidine-4-carboxamide] cannot be ordered by Ki: less than 10 nM for the first, less than 10 nM for the second.

`CNCCC(=O)NC1(c2cnc(-c3ccccc3OC)c(F)c2)CCN(c2ccc(C(F)(F)F)cc2C#N)CC1` [Compound 2-63, N-{1-[2-cyano-4-(trifluoromethyl)phenyl]-4-[5-fluoro-6-(2-methoxyphenyl)pyridin-3-yl]piperidin-4-yl}-3-(methylamino)propanamide] and `CCOc1ncccc1-c1ccc(C2(C(=O)N[C@@H]3CCN(C)C3)CCN(c3ccc(C(F)(F)F)cc3C#N)CC2)cc1` [Compound 1-1, 1-[2-cyano-4-(trifluoromethyl)phenyl]-4-[4-(2-ethoxypyridin-3-yl)phenyl]-N-[(3R)-1-methylpyrrolidin-3-yl]piperidine-4-carboxamide] cannot be ordered by Ki: less than 10 nM for the first, less than 10 nM for the second.

`CCOc1ncccc1-c1ccc(C2(NC(=O)[C@H]3CCNC3)CCN(c3ccc(C(F)(F)F)cc3C#N)CC2)cn1` [Compound 2-8, (3S)—N-{1-[2-cyano-4-(trifluoromethyl)phenyl]-4-{2′-ethoxy-[2,3′-bipyridin]-5-yl}piperidin-4-yl}pyrrolidine-3-carboxamide] and `CCOc1ccccc1-c1ncc(C2(C(=O)N[C@H]3CCN(C)C3)CCN(c3ccc(C(F)(F)F)cc3F)CC2)cc1F` [Compound 1-200, 4-[6-(2-ethoxyphenyl)-5-fluoropyridin-3-yl]-1-[2-fluoro-4-(trifluoromethyl)phenyl]-N-[(3S)-1-methylpyrrolidin-3-yl]piperidine-4-carboxamide] cannot be ordered by Ki: less than 10 nM for the first, less than 10 nM for the second.

Compound `CCOc1ncccc1-c1ccc(C2(C(=O)N[C@@H](C)CN(C)C)CCN(c3ccc(C(F)(F)F)cc3F)CC2)cn1` [Compound 1-317, N-[(2S)-1-(dimethylamino)propan-2-yl]-4-{2′-ethoxy-[2,3′-bipyridin]-5-yl}-1-[2-fluoro-4-(trifluoromethyl)phenyl]piperidine-4-carboxamide] has a Ki of less than 10 nM.
